The values below come from ChEMBL document CHEMBL1201862, “PubChem BioAssay data set” (2004).

Active and inactive are the calls of the source. Cut-off read from the data, not from the text of the source, for most assays here: actives have a measured IC50 and inactives only a lower limit.

Holding throughout (format): functional
The target in test [1] is T1, Protein RecA (Mycobacterium tuberculosis, UniProt P9WHJ3).
T1 sequence (P9WHJ3 whole entry): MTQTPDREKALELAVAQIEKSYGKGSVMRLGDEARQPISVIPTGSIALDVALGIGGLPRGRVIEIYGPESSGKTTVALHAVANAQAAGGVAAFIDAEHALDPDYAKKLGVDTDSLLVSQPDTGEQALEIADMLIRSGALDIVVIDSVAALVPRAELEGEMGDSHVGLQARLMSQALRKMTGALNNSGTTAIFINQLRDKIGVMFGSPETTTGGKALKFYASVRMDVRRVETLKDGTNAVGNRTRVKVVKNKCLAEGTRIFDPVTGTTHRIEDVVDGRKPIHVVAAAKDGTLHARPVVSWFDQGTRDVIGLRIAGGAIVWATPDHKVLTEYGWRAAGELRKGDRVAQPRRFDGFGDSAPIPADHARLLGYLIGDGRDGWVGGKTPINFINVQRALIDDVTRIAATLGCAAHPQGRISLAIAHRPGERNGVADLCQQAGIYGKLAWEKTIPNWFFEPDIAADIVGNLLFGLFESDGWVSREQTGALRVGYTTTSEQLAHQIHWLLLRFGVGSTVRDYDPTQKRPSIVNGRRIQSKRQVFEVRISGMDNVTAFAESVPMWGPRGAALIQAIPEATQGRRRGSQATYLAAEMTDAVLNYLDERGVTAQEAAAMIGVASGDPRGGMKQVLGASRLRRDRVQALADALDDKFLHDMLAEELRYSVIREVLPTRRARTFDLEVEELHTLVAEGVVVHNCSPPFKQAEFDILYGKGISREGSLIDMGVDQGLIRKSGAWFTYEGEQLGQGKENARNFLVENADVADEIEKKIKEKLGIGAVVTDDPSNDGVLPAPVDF
Nature of the test: Fluorescence Cell-Free Homogeneous Dose Retest to Identify Inhibitors of RecA-Intein Splicing Activity. [Related pubchem assays (depositor defined):AID2097, AID2223, AID489010, AID492950].

For test [2], the target named is T2, Sentrin-specific protease 7 (Homo sapiens, UniProt Q9BQF6).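 Note: Luminescence-based dose-response confirmation of ultra-high-throughput screening hits, measuring inhibition of SENP7.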
T2 sequence (Q9BQF6 whole entry): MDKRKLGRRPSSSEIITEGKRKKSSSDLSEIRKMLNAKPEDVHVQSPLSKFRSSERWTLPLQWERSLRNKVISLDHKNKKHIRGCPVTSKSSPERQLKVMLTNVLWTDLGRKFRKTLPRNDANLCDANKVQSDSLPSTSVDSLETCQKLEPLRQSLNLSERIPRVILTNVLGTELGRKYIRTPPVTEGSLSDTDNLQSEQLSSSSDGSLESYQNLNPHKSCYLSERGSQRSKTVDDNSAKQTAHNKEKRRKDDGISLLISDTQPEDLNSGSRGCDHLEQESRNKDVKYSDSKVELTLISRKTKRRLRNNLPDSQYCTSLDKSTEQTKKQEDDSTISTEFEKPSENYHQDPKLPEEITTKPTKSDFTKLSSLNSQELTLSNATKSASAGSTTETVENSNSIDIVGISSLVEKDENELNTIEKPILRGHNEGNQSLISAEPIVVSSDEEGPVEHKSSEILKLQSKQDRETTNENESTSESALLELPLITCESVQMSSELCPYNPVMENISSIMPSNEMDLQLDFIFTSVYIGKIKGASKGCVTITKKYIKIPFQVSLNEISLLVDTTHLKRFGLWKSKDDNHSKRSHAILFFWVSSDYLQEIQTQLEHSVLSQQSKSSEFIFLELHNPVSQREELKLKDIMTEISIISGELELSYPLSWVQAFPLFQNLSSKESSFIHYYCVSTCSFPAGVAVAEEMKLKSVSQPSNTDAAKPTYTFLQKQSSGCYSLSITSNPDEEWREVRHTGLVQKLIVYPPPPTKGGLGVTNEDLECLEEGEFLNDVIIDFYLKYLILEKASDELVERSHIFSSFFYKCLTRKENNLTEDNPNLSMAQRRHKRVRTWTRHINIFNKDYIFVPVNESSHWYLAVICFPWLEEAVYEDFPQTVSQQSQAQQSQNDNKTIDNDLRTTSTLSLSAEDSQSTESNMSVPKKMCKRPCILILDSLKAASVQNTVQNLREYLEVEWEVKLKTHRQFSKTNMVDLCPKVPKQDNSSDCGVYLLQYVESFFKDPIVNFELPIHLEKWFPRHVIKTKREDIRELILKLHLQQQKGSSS

The target of test [3] is T3, Apoptotic protease-activating factor 1 (Homo sapiens, UniProt O14727).
T3 sequence (O14727 whole entry): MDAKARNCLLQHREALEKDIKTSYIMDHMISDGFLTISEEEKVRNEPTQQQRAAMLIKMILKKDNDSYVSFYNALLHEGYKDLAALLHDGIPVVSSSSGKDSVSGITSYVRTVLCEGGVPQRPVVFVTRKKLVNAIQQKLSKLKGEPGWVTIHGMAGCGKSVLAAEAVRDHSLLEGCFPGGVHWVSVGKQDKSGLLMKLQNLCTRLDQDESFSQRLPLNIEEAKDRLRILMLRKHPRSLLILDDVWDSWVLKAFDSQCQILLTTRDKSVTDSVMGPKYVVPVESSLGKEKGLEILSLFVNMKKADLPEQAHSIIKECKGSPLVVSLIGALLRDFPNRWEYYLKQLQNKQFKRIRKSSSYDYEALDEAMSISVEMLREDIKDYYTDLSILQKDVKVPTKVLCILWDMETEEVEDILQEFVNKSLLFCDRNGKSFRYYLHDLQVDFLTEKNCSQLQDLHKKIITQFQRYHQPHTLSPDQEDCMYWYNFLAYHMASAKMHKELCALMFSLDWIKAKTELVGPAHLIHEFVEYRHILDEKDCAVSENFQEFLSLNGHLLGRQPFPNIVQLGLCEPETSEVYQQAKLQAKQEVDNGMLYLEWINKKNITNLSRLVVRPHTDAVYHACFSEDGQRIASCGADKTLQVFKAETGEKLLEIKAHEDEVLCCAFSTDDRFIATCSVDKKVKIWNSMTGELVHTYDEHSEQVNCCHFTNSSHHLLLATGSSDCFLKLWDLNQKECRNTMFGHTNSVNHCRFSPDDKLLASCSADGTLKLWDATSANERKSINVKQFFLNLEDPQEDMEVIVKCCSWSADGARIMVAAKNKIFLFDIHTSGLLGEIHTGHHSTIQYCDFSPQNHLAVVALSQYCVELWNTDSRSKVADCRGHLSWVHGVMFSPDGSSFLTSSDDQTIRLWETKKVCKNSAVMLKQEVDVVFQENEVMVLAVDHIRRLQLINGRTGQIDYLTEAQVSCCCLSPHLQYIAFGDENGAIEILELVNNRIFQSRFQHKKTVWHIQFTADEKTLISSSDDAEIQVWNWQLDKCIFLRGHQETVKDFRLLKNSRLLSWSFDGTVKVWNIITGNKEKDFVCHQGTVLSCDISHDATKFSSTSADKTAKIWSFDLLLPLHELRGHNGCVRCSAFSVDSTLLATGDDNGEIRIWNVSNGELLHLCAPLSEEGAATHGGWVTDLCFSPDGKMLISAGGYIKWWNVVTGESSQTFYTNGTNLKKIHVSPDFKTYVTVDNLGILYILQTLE

As to `Cc1cccc(C)c1-n1cccc1/C=C1\SC(=S)N(c2cccc(C(=O)O)c2)C1=O`, the EC50 in test [1] was 9090 nM (active). For `Oc1ccc(/C=N/Nc2cc(N3CCCC3)nc(N3CCCC3)n2)cc1`, the IC50 in test [2] was 31000 nM (active); in test [3] it was 707 nM (active). Consider `COc1ccc(S(=O)(=O)/N=C2\C=C(Nc3ccc(O)cc3)C(=O)c3ccccc32)cc1`, for which the EC50 in test [1] was 141 nM (active). Besides, the IC50 in test [3] is 441 nM (active). On to `COc1ccc(/C=N/Nc2cc(N3CCCC3)nc(N3CCCC3)n2)cc1`, for which the IC50 in test [2] was 5230 nM (active); in test [3], 2630 nM (active).
